Measured values reported in ChEMBL document CHEMBL1909046, “DrugMatrix in vitro pharmacology data”.

Assays:
[1] = target: T1, Cysteinyl leukotriene receptor 1 (Homo sapiens, UniProt Q9Y271); type: cell membranes, Membrane; settings: cho-k1; note: in other assays of this panel Not Active means under 50% inhibition at 10 µM
T1 sequence (Q9Y271 whole entry): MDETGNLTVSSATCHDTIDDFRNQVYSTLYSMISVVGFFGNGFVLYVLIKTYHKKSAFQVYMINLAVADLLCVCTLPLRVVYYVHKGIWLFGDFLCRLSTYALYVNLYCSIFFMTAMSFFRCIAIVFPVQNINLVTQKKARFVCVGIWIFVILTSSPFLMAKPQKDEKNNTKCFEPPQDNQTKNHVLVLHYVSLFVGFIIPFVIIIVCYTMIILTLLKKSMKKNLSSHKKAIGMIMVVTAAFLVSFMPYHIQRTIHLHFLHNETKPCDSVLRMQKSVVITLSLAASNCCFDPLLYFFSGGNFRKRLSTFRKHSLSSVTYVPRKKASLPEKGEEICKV

[2] = target: Sigma non-opioid intracellular receptor 1 (Homo sapiens, UniProt Q99720); test: DRUGMATRIX: Sigma1 radioligand binding (ligand: [3H] Haloperidol); type: cell membranes, Jurkat, Membrane; settings: Not Active = under 50% inhibition at 10 µM
Endothelin-1 receptor = target: T2, Endothelin-1 receptor (Homo sapiens, UniProt P25101); type: cell membranes, CHO-K1, Membrane; settings: cho-k1; note: in other assays of this panel Not Active means under 50% inhibition at 10 µM
T2 sequence (P25101 whole entry): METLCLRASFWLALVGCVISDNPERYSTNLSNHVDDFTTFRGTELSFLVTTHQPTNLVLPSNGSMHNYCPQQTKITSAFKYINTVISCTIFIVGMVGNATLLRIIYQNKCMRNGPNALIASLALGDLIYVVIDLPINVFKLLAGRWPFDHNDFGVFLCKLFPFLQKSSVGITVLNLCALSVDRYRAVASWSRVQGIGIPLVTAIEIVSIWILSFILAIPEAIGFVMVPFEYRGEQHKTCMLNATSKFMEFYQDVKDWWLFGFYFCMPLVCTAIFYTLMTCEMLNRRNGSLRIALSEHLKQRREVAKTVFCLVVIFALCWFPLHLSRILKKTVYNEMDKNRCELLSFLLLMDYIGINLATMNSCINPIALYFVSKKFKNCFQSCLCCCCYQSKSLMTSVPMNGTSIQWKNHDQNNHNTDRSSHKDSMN

Caspase-1 = target: T3, Caspase-1 (Homo sapiens, UniProt P29466); parameters: species or system Escherichia coli;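 note: Caspase-1 enzyme inhibition assay with a peptide substrate; in other assays of this panel Not Active means under 50% inhibition at 10 µM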
T3 sequence (P29466 whole entry): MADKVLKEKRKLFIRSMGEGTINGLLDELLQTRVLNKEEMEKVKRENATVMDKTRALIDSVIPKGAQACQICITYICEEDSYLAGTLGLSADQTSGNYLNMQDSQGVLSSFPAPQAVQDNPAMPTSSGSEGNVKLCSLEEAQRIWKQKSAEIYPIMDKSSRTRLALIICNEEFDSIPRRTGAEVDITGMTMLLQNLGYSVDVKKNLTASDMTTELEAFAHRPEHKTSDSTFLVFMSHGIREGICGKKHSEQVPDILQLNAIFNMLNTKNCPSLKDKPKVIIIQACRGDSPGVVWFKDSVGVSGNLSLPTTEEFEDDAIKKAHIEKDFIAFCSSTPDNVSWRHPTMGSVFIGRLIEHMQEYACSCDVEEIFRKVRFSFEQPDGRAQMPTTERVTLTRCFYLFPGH

[3] = DRUGMATRIX: Sodium/nucleoside co-transporter radioligand binding (ligand: nitrobenzylthioinosine); type: cell membranes, Cavia porcellus, Dunkin-Hartley, Cerebral cortex, Membrane; settings: Not Active = under 50% inhibition at 10 µM
[4] = DRUGMATRIX: Calcium Channel Type L, Phenylalkylamine radioligand binding (ligand: [3H] (-)-Desmethoxyverapamil (D-888)); type: cell membranes, Rattus norvegicus, Wistar, Brain, Membrane; settings: Not Active = under 50% inhibition at 10 µM
[5] = target: T4, 3-hydroxy-3-methylglutaryl-coenzyme A reductase (Homo sapiens, UniProt P04035); parameters: species or system Escherichia coli;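 note: enzyme inhibition assay of HMG-CoA reductase using radiolabeled [14C]HMG-CoA as substrate; in other assays of this panel Not Active means under 50% inhibition at 10 µM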
T4 sequence (P04035 whole entry): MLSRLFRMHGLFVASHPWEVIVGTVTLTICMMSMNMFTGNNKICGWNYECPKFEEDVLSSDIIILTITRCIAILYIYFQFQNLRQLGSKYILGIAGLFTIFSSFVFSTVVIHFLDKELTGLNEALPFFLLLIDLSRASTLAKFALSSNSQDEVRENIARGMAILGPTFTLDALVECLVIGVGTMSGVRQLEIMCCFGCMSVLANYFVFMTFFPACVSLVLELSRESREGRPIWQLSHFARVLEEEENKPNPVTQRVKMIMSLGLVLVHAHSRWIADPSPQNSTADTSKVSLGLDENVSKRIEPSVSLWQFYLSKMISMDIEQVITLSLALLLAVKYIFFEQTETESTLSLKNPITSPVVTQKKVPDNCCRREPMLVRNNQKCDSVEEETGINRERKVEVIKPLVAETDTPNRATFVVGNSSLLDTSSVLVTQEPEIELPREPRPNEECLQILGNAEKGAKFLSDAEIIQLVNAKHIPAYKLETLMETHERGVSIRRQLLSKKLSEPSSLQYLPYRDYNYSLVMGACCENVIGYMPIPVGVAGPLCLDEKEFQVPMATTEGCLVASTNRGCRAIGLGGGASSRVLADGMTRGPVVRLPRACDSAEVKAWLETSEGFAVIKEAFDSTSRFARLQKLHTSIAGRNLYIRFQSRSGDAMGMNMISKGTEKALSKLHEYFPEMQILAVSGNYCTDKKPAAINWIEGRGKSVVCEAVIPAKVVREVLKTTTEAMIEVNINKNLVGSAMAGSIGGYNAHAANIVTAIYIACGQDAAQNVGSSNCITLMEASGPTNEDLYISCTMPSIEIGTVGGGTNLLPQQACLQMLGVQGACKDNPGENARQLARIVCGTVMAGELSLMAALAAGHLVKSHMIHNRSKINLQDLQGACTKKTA

Chain of Sigma non-opioid intracellular receptor 1 (Q99720 whole entry): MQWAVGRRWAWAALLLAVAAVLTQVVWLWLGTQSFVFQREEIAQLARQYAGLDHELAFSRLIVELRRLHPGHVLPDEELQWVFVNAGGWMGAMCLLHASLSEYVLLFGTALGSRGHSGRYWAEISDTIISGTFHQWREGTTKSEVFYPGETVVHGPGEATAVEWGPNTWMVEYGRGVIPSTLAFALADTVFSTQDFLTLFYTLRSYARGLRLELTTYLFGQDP

Compound	IC50 [1]	IC50 ([2]; jurkat)	IC50 (Endothelin-1 receptor)	IC50 (Caspase-1)	IC50 [3]	Ki [3]	IC50 [4]	Ki [4]	IC50 [5]	IC50 ([2]; read-out: IC50) [µM]	Ki ([2]; read-out: Ki) [µM]	Ki [1]	Ki ([2]; jurkat)	Ki (Endothelin-1 receptor)	Ki (Caspase-1)	Ki [5]
CC(C)(Oc1ccc(C2CC2(Cl)Cl)cc1)C(=O)O (centres undefined) [CIPROFIBRATE]	Not Active	Not Active	Not Active	Not Active	Not Active	Not Active	Not Active	Not Active	Not Active	–	–	–	–	–	–	–
Cc1cn[nH]c1 [FOMEPIZOLE]	Not Active	Not Active	Not Active	Not Active	Not Active	Not Active	Not Active	Not Active	Not Active	–	–	–	–	–	–	–
CCc1oc2ccccc2c1C(=O)c1cc(Br)c(O)c(Br)c1 [BENZBROMARONE]	Not Active	Not Active	Not Active	Not Active	Not Active	Not Active	Not Active	Not Active	Not Active	–	–	–	–	–	–	–
CNC(=C[N+](=O)[O-])NCCSCc1csc(CN(C)C)n1 [NIZATIDINE]	Not Active	Not Active	Not Active	Not Active	Not Active	Not Active	Not Active	Not Active	Not Active	–	–	–	–	–	–	–
CCC[C@@H]1C[C@@H](C(=O)N[C@@H]([C@H]2O[C@H](SC)[C@H](O)[C@@H](O)[C@H]2O)[C@H](C)Cl)N(C)C1 [CLINDAMYCIN]	Not Active	Not Active	Not Active	Not Active	Not Active	Not Active	Not Active	Not Active	Not Active	–	–	–	–	–	–	–
CC(=O)O[C@]1(C(C)=O)CC[C@H]2[C@@H]3C=C(Cl)C4=CC(=O)[C@@H]5C[C@@H]5[C@]4(C)[C@H]3CC[C@@]21C [CYPROTERONE ACETATE]	Not Active	Not Active	Not Active	Not Active	Not Active	Not Active	Not Active	Not Active	Not Active	–	–	–	–	–	–	–
CN(Cc1cnc2nc(N)nc(N)c2n1)c1ccc(C(=O)N[C@@H](CCC(=O)O)C(=O)O)cc1 [METHOTREXATE]	Not Active	Not Active	Not Active	Not Active	Not Active	Not Active	Not Active	Not Active	Not Active	–	–	–	–	–	–	–
C/C=C\c1ccc(O)c(OC)c1 [ISOEUGENOL]	Not Active	Not Active	Not Active	Not Active	Not Active	Not Active	Not Active	Not Active	Not Active	–	–	–	–	–	–	–
CC(CCc1ccc(O)cc1)NCCc1ccc(O)c(O)c1 (centres undefined) [DOBUTAMINE]	Not Active	–	Not Active	Not Active	Not Active	Not Active	Not Active	Not Active	Not Active	2.52	1.06	–	–	–	–	–
Nc1nc(Cl)nc2c1ncn2[C@H]1C[C@H](O)[C@@H](CO)O1 [CLADRIBINE]	Not Active	Not Active	Not Active	Not Active	Not Active	Not Active	Not Active	Not Active	Not Active	–	–	–	–	–	–	–
Cc1cccc(Nc2cc(Cl)nc(SCC(=O)O)n2)c1C [PIRINIXIC ACID]	Not Active	Not Active	Not Active	Not Active	Not Active	Not Active	Not Active	Not Active	Not Active	–	–	–	–	–	–	–
INSULIN HUMAN	Not Active	Not Active	Not Active	Not Active	Not Active	Not Active	Not Active	Not Active	Not Active	–	–	Not Active	Not Active	Not Active	Not Active	Not Active
